Like-named read-outs stand apart in the source and are kept apart here.
How the values were obtained:
[1] = target: T1, ATP-sensitive potassium channels (Cavia porcellus, UniProt A0A286XYR9); experiment: Radioligand (Example 1) binding assay, guinea-pig cardiac ventricle membranes; conditions: for effect on specific binding of Example 1 (in words): guinea-pig cardiac membranes
Experimental: Membrane Preparation: Guinea-pig cardiac ventricles and bladder membranes were prepared by standard procedures, Gopalakrishnan, M., Johnson, D. E., Janis, R. A. & Triggle, D. J. (1991) Journal of Pharmacology and Experimental Therapeutics, 257, 1162-71; Russ, U., Metzger, F., Kickenweiz, E., Hambrock, A., Krippeit-Drews, P. & Quast, U. (1997) Br. J. Pharmacol., 122, 1119-1126. Briefly, ventricles and bladders were quickly removed from male guinea-pigs (Charles River) and placed in ice-cold binding buffer. Tissues were cleansed of adherent connective tissue, chopped into small pieces and disrupted using Tekmar polytron in about 15-vol./g tissue weight. Homogenates were centrifuged at 45,000×g and the membrane pellets were resuspended in the assay buffer. Membrane preparations from other tissues, cells, both clonal and transfected with KATP subunits, may also be used. Clonal cell lines or transfected cell lines can be cultured by standard tissue culture techniques. When cells were confluent, membrane preparations were made by removal of media followed by scraping the monolayer in ice-cold Tris HCl buffer (pH 7.2). The suspension was then centrifuged at 45,000×g for 20 minutes and the pellet was resuspended in the assay buffer for use in radioligand assays.
Binding Assay: A radioligand of formula (I) such as 9-(4-fluoro-3-[I^125]iodophenyl)-2,3,5,9-tetrahydro-4H-pyrano[3,4-b]thieno[2,3-e]pyridin-8(7H)-one 1,1-dioxide (Example 1) (specific activity, 2000 Ci/mmol) was stored in ethanol. Prior to use, the desired amount of Example 1 was dried under a gentle stream of nitrogen gas and reconstituted in the assay buffer (usually prepared as a 10×stock). Guinea-pig ventricle membranes were incubated in a total 0.25 mL volume of HEPES buffer (composition, NaCl, 139 mM; KCl, 5 mM, MgCl2, 25 mM; CaCl2, 1.25 mM; pH 7.4 at 25° C.) containing an ATP regenerating system (creatine phosphate (40 mM), creatine phosphokinase (100 enzyme units) and varying concentrations of Na2ATP (0.01-3 mM) with Example 1 and varying concentrations of test compounds at 37° C. for 90 minutes. These conditions have been previously employed by Gopalakrishnan et al., 1991 (see above), hereby incorporated by reference, wherein the levels of ATP were consistently maintained since free ADP is converted back to ATP by creatine phosphate and creatine is regenerated to creatine phosphate by the enzyme creatine phosphokinase.
Saturation binding of Example 1 was performed with varying concentrations of Example 1. For inhibition assays, samples were incubated in a final volume of 0.25 mL of buffer containing 1-2 nM of Example 1 with varying concentrations of the test compounds. Incubations were terminated by rapid vacuum filtration through GF/B filters followed by rinsing twice with ice-cold 50 mM Tris HCl (pH 7.4). Radioactivity bound to the filters was assessed by gamma counting. Specific radioligand binding is defined by the inclusion of 10 μM of unlabeled Example 1 and was obtained by subtracting the nonspecific binding from the total binding to membranes and filters.
Membrane protein concentration was determined by the method of Lowry et al Gopalakrishnan, M., Triggle, D. J., Rutledge, A., Kwon, Y. W., Bauer, J. A. & Fung, H. L. (1991) Am. J. Physiol., 261, H1979-H1987; Janis, R. A., Maurer, S. C., Sarmiento, J. G., Bolger, G. T. & Triggle, D. J. (1982). Eur. J. Pharmacol., 82, 191-4.
The equilibrium dissociation constant (KD) and maximal density of binding sites (Bmax) of Example 1 was determined by non-linear regression of the saturation binding isotherm. The Ki values were calculated from the concentration inhibition curve by the method of Cheng and Prusoff (1973) Biochem.Pharmacol.,22, 3099-3108. Data is presented as means±S.E.M.

[2] = target: ATP-sensitive potassium channel; experiment: Comparison of the profile of the novel radioligand with [^3H]P1075 in membrane preparations; type: binding; conditions: radioligand comparison table; read-out: Affinity
[3] = target: T1, ATP-sensitive potassium channels; experiment: Radioligand (Example 1) binding assay, guinea-pig cardiac ventricle membranes; conditions: without ATP regenerating system
[4] = cardiac membranes, in the presence of the ATP regenerating system, Cheng-Prusoff, read-out: Ki value for displacement of specific Example 1 binding
[5] = quantity not given, Ki per method, mean±S.E.M., read-out: displacement of specific Example 1 binding by KATP channel blockers

T1 sequence (A0A286XYR9 1-1546): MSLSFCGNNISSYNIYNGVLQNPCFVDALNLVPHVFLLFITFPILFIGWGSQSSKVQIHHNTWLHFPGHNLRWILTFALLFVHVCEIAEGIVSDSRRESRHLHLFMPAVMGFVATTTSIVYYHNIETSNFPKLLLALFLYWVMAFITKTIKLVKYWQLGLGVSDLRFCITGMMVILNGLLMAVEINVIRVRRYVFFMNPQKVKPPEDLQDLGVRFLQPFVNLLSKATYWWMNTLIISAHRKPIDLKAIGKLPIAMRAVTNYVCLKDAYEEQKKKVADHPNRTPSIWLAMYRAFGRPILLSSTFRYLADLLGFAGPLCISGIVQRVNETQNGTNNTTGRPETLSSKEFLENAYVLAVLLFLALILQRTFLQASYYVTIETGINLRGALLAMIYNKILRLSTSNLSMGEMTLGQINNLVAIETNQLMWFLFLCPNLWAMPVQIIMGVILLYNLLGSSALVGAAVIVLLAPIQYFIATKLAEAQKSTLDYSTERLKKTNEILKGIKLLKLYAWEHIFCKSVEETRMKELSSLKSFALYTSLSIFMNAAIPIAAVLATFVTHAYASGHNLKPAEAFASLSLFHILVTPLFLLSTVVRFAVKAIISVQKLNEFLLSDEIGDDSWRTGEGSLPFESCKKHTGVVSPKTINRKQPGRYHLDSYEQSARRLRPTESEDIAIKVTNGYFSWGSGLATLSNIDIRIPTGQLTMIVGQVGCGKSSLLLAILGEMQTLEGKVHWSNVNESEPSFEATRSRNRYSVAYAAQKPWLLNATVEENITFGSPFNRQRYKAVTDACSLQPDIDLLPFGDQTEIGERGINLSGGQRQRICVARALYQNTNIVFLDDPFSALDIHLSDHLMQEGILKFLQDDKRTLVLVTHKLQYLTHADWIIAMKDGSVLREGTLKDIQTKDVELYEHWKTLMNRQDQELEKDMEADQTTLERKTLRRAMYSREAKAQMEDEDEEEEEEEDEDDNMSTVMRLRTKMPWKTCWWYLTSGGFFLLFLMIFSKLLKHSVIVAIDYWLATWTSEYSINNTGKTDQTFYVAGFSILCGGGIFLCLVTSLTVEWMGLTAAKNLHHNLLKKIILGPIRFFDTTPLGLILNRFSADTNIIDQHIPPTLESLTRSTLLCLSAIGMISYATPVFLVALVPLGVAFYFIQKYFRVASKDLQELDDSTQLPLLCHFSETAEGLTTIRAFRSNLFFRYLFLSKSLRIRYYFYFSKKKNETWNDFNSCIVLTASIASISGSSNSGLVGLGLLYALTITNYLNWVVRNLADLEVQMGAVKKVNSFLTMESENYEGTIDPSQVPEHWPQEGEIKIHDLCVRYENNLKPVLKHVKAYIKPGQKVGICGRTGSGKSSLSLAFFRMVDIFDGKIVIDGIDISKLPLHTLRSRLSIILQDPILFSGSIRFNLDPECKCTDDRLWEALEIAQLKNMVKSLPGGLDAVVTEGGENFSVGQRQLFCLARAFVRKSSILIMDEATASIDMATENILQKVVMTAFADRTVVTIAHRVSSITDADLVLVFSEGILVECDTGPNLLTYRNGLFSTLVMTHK

## CCOc1ccccc1N/C(=C\[N+](=O)[O-])NC(C)C(C)(C)C (stereo not drawn) [Bay X 9228]
[1]
  effect on specific binding of Example 1 (in words): displaced

## O=C1COCC2=C1C(c1ccc(F)c(I)c1)C1=C(CCS1(=O)=O)N2 (stereo not drawn) [Example 1, 9-(4-fluoro-3-[I^125]iodophenyl)-2,3,5,9-tetrahydro-4H-pyrano[3,4-b]thieno[2,3-e]pyridin-8(7H)-one 1,1-dioxide]
[2]
  Kd: 5 nM
[1]; [4]
  Ki: 5.8 nM
[1]; guinea-pig cardiac ventricle membranes, single set of saturable sites, n=3, mean±S.E.M., read-out: KD value (equilibrium dissociation constant), saturation binding
  Kd: 5.83 ± 0.77 nM

## O=C1COCC2=C1C(c1ccc(F)c([125I])c1)C1=C(CCS1(=O)=O)N2 (stereo not drawn) [Example 1, 9-(4-fluoro-3-[I^125]iodophenyl)-2,3,5,9-tetrahydro-4H-pyrano[3,4-b]thieno[2,3-e]pyridin-8(7H)-one 1,1-dioxide]
[3]
  specific binding in the presence of just ATP alone: no specific binding was detected
[1]; guinea-pig cardiac ventricle membranes, saturation binding, n=3
  maximum binding capacity (Bmax): 107.7±12.7 femtomol/mg protein

## O=C1CCCC2=C1[C@H](c1ccc(F)c(Br)c1)C1=C(CCS1(=O)=O)N2 [Example A-278637]
[1]
  effect on specific binding of Example 1 (in words): displaced

## CCC(C)(C)N=C(NC#N)Nc1cccnc1 [Example P1075]
[1]
  effect on specific binding of Example 1 (in words): displaced

## O=C1COCC2=C1C(c1ccc(F)c(I)c1)C1=C(CCS1(=O)=O)N2 (stereo not drawn) [Unlabeled Example 1, 9-(4-fluoro-3-iodophenyl)-2,3,5,9-tetrahydro-4H-pyrano[3,4-b]thieno[2,3-e]pyridin-8(7H)-one 1,1-dioxide]
[1]; [4]
  Ki: 5.8 nM

## CC1(C)Oc2ccc(C#N)cc2C(N2CCCC2=O)C1O (stereo not drawn) [cromakalim]
[1]
  effect on specific binding of Example 1 (in words): displaced

## CC1=NS(=O)(=O)c2cc(Cl)ccc2N1 [diazoxide]
[1]; cardiac membranes, rank order potency, read-out: Ki value for displacement of Example 1 binding
  Ki: 44800 nM

## Cc1cnc(C(=O)NCCc2ccc(S(=O)(=O)NC(=O)NC3CCCCC3)cc2)cn1 [glipizide]
[1]; [5]
  Ki: 4500 ± 400 nM

## COc1ccc(Cl)cc1C(=O)NCCc1ccc(S(=O)(=O)NC(=O)NC2CCCCC2)cc1 [glyburide]
[1]; [5]
  Ki: 47.6 ± 9.4 nM

## COC(=O)C1=C(C)NC(C)=C(C(=O)OC(C)C)C1c1cccc2nonc12 (stereo not drawn) [isradipine]
[1]
  effect on specific binding of Example 1 (in words): unaffected

## CC(N/C(=N\C#N)Nc1ccncc1)C(C)(C)C (stereo not drawn) [pinacidil]
[1]
  effect on specific binding of Example 1 (in words): displaced
